Source: the NIST ThermoML archive (doi:10.1021/acs.jced.8b00879)

Experiment: mn = molality of the nth substance listed, in mol/kg
Details: 85 kPa, Liquid; for viscosity: Capillary tube (Ostwald / Ubbelohde) method; for speed of sound: Frequency=3 MHz, Single path-length method; for mass density: Vibrating tube method

C[N+](C)(C)CCO.O=C([O-])[C@@H]1CCCN1 [2-hydroxy-N,N,N-trimethylethanaminium L-prolinate] + O
Details | mass density [kg/m3] | speed of sound [m/s] | viscosity [mPa·s]
288.15 K, m1 = 0.0136 | 999.51 | 1468.7 | 1.325
288.15 K, m1 = 0.0217 | 999.76 | 1469.9 | 1.337
288.15 K, m1 = 0.0329 | 1000.09 | 1471.5 | 1.351
288.15 K, m1 = 0.044 | 1000.42 | 1473.1 | 1.364
288.15 K, m1 = 0.0525 | 1000.67 | 1474.2 | 1.375
288.15 K, m1 = 0.0626 | 1000.96 | 1475.6 | 1.388
298.15 K, m1 = 0.0136 | 997.47 | 1499 | 1.059
298.15 K, m1 = 0.0217 | 997.71 | 1500.2 | 1.067
298.15 K, m1 = 0.0329 | 998.05 | 1501.8 | 1.077
298.15 K, m1 = 0.044 | 998.38 | 1503.4 | 1.089
298.15 K, m1 = 0.0525 | 998.63 | 1504.5 | 1.096
298.15 K, m1 = 0.0626 | 998.92 | 1505.9 | 1.104
308.15 K, m1 = 0.0136 | 994.45 | 1522.1 | 0.879
308.15 K, m1 = 0.0217 | 994.7 | 1523.3 | 0.884
308.15 K, m1 = 0.0329 | 995.04 | 1524.8 | 0.894
308.15 K, m1 = 0.044 | 995.37 | 1526.4 | 0.902
308.15 K, m1 = 0.0525 | 995.63 | 1527.5 | 0.908
308.15 K, m1 = 0.0626 | 995.92 | 1528.9 | 0.916
318.15 K, m1 = 0.0136 | 990.64 | 1538 | 0.74
318.15 K, m1 = 0.0217 | 990.9 | 1539.1 | 0.746
318.15 K, m1 = 0.0329 | 991.24 | 1540.7 | 0.753
318.15 K, m1 = 0.044 | 991.58 | 1542.2 | 0.76
318.15 K, m1 = 0.0525 | 991.84 | 1543.3 | 0.764
318.15 K, m1 = 0.0626 | 992.13 | 1544.6 | 0.772

C[N+](C)(C)CCO.NCC(=O)[O-] [2-hydroxy-N,N,N-trimethylethanaminium glycinate] + O
Details | mass density [kg/m3] | speed of sound [m/s] | viscosity [mPa·s]
288.15 K, m1 = 0.0111 | 999.43 | 1468.1 | 1.251
288.15 K, m1 = 0.0214 | 999.73 | 1469.5 | 1.263
288.15 K, m1 = 0.0318 | 1000.03 | 1470.8 | 1.275
288.15 K, m1 = 0.0417 | 1000.3 | 1472.1 | 1.288
288.15 K, m1 = 0.0534 | 1000.63 | 1473.6 | 1.302
288.15 K, m1 = 0.0619 | 1000.85 | 1474.7 | 1.313
298.15 K, m1 = 0.0111 | 997.68 | 1498.2 | 1
298.15 K, m1 = 0.0214 | 997.97 | 1499.4 | 1.011
298.15 K, m1 = 0.0318 | 998.25 | 1500.6 | 1.02
298.15 K, m1 = 0.0417 | 998.57 | 1501.7 | 1.03
298.15 K, m1 = 0.0534 | 998.8 | 1503 | 1.042
298.15 K, m1 = 0.0619 | 997.38 | 1504 | 1.049
308.15 K, m1 = 0.0111 | 994.36 | 1521.1 | 0.832
308.15 K, m1 = 0.0214 | 994.66 | 1522.2 | 0.841
308.15 K, m1 = 0.0318 | 994.96 | 1523.2 | 0.851
308.15 K, m1 = 0.0417 | 995.24 | 1524.1 | 0.858
308.15 K, m1 = 0.0534 | 995.56 | 1525.2 | 0.869
308.15 K, m1 = 0.0619 | 995.79 | 1526 | 0.877
318.15 K, m1 = 0.0111 | 990.55 | 1536.9 | 0.706
318.15 K, m1 = 0.0214 | 990.85 | 1537.7 | 0.714
318.15 K, m1 = 0.0318 | 991.15 | 1538.6 | 0.722
318.15 K, m1 = 0.0417 | 991.43 | 1539.4 | 0.729
318.15 K, m1 = 0.0534 | 991.75 | 1540.5 | 0.737
318.15 K, m1 = 0.0619 | 991.99 | 1541.2 | 0.741
